# In US7348427B2, “Antipathogenic benzamide compounds” (Genesoft Pharmaceuticals, Inc., priority 2001, dated 2008):
# Columns and labels:
# [1] = test system: Candida albicans (ATCC 38247); experiment: Antifungal MIC assay; assay type: cell-based; conditions: B = C. albicans ATCC 38247
# Excerpt: (§1) In vitro biological activity data were collected for a variety of microorganisms, including Bacillus cereus (ATCC 11778), Staphylococcus aureus (ATCC 27660, a methicillin resistant strain (MRSA); ATCC 13709, a methicillin sensitive strain (MSSA)); Streptococcus pneumoniae (ATCC 51422, a penicillin resistant strain (PRSP)), Enterococcus faecium (ATCC 51559, a vancomycin resistant strain (VRE)), and Staphylococcus epidermidis (ATCC 12228). Additionally, antifungal activity data were collected for Candida albicans (ATCC 38247).
# (§2) Compounds according to this invention were screened for their in vitro activities against selected species of bacteria and fungi. The minimal inhibition concentration (MIC) of these compounds was determined using the National Committee for Clinical Laboratory Standards (NCCLS) broth microdilution assay in microtiter plates, as set forth in: (1) the guidelines of the National. Committee for Clinical Laboratory Standards (NCCLS) Document M7-A4 (NCCLS, 1997); (2) the guidelines of the National Committee for Clinical Laboratory Standards (NCCLS) Document M11-A4 (NCCLS, 1997); and (3) the guidelines and reference method of the National Committee for Clinical Laboratory Standards (NCCLS) Document M27-T (NCCLS, 1995). For antifungal assays, the method recommended in Murray, P R., 1995 Manual of Clinical Microbiology (ASM Press, Washington, D.C.), was employed.
# [2] = test system: Staphylococcus aureus (ATCC 27660, a methicillin resistant strain (MRSA)); experiment: MIC, NCCLS broth microdilution assay; assay type: cell-based; conditions: F = S. aureus ATCC 27660
# Excerpt: as §1, §2
# [3] = test system: Staphylococcus aureus (ATCC 13709, a methicillin sensitive strain (MSSA)); experiment: MIC, NCCLS broth microdilution assay; assay type: cell-based; conditions: E = S. aureus ATCC 13709
# Excerpt: as §1, §2
# [4] = test system: Bacillus cereus (ATCC 11778); experiment: MIC, NCCLS broth microdilution assay; assay type: cell-based; conditions: A = B. cereus ATCC 11778
# Excerpt: as §1, §2
# E. faecalis ATCC 29212 = experiment: MIC, NCCLS broth microdilution assay; assay type: cell-based, Enterococcus faecalis; conditions: C = E. faecalis ATCC 29212
# Description: as §2
# S. pneumoniae ATCC 49619 = experiment: MIC, NCCLS broth microdilution assay; assay type: cell-based, Streptococcus pneumoniae; conditions: H = S. pneumoniae ATCC 49619
# Description: as §2
# [5] = Staphylococcus aureus, read-out: Minimum Inhibitory Concentration (MIC)
SMILES,"MIC ([1]; Candida albicans, ATCC38247, read-out: Minimum Inhibitory Concentration (MIC))","MIC [2, 5]","MIC [3, 5]","MIC ([4]; Bacillus cereus, ATCC11778, read-out: Minimum Inhibitory Concentration (MIC))","MIC (E. faecalis ATCC 29212; Enterococcus faecalis, ATCC29212, read-out: Minimum Inhibitory Concentration (MIC))","MIC (S. pneumoniae ATCC 49619; Streptococcus pneumoniae, ATCC49619, read-out: Minimum Inhibitory Concentration (MIC))",Minimum Inhibitory Concentration (MIC) [1],Minimum Inhibitory Concentration (MIC) [2],Minimum Inhibitory Concentration (MIC) [3],Minimum Inhibitory Concentration (MIC) [4],Minimum Inhibitory Concentration (MIC) (E. faecalis ATCC 29212),Minimum Inhibitory Concentration (MIC) (S. pneumoniae ATCC 49619)
Cn1cc(NC(=O)c2cc(NC(=O)c3ccc(Cl)cc3F)c[nH]2)cc1C(=O)NCCN1CCOCC1 [Compound A-17],> 32 µg/mL,4 to 12 µg/mL,4 to 12 µg/mL,12 to 32 µg/mL,≤ 4 µg/mL,≤ 4 µg/mL,–,–,–,–,–,–
Cn1cc(NC(=O)c2cc(NC(=O)c3ccc(Cl)cc3F)c[nH]2)cc1C(=O)NCCN1CCCC1 [Compound A-19],–,–,–,–,–,–,>32 µg/mL,+++ (+++ = MIC ≦ 4),++ (++ = 4 < MIC < 12),+ (+ = 12 ≦ MIC ≦ 32),+++ (+++ = MIC ≦ 4),+++ (+++ = MIC ≦ 4)
CCN(CC)CCNC(=O)c1cc(NC(=O)c2cc(NC(=O)c3ccc(Cl)cc3F)c[nH]2)cn1C [Compound A-20],–,–,–,–,–,–,>32 µg/mL,++ (++ = 4 < MIC < 12),++ (++ = 4 < MIC < 12),+ (+ = 12 ≦ MIC ≦ 32),+++ (+++ = MIC ≦ 4),+++ (+++ = MIC ≦ 4)
Cn1cc(NC(=O)c2cc(NC(=O)c3ccc(Cl)cc3F)c[nH]2)cc1C(=O)NCCN1CCC(O)CC1 [Compound A-23],–,–,–,–,–,–,>32 µg/mL,+ (+ = 12 ≦ MIC ≦ 32),+ (+ = 12 ≦ MIC ≦ 32),+ (+ = 12 ≦ MIC ≦ 32),+ (+ = 12 ≦ MIC ≦ 32),+++ (+++ = MIC ≦ 4)
Cn1cc(NC(=O)c2cc(NC(=O)c3cc(NC(=O)c4ccc(Cl)cc4F)c[nH]3)cn2C)cc1C(=O)NCCc1cccnc1 [Compound A-24],–,–,–,–,–,–,>32 µg/mL,+++ (+++ = MIC ≦ 4),>32 µg/mL,+++ (+++ = MIC ≦ 4),++ (++ = 4 < MIC < 12),+++ (+++ = MIC ≦ 4)
Cn1cc(NC(=O)c2cc(NC(=O)c3ccc(Cl)cc3F)c[nH]2)cc1C(=O)NCCc1ccncc1 [Compound A-25],–,–,–,–,–,–,>32 µg/mL,+++ (+++ = MIC ≦ 4),+++ (+++ = MIC ≦ 4),++ (++ = 4 < MIC < 12),+++ (+++ = MIC ≦ 4),+++ (+++ = MIC ≦ 4)
Cn1cc(NC(=O)c2cc(NC(=O)c3cc(NC(=O)c4cc(NC(=O)c5ccc(Cl)cc5F)c[nH]4)cn3C)cn2C)cc1C(=O)NCCN1CCOCC1 [Compound A-27],–,–,–,–,–,–,>32 µg/mL,+ (+ = 12 ≦ MIC ≦ 32),+ (+ = 12 ≦ MIC ≦ 32),+++ (+++ = MIC ≦ 4),++ (++ = 4 < MIC < 12),+++ (+++ = MIC ≦ 4)
Cn1cc(NC(=O)c2cc(NC(=O)c3cc(NC(=O)c4ccc(Cl)cc4F)c[nH]3)cn2C)cc1C(=O)NCCN1CCSC1 [Compound A-29],–,–,–,–,–,–,>32 µg/mL,++ (++ = 4 < MIC < 12),+++ (+++ = MIC ≦ 4),+++ (+++ = MIC ≦ 4),+ (+ = 12 ≦ MIC ≦ 32),+++ (+++ = MIC ≦ 4)
Cn1cc(NC(=O)c2cc(NC(=O)c3cc(NC(=O)c4ccc(Cl)c(Cl)c4)c[nH]3)cn2C)cc1C(=O)NCCN1CCOCC1 [Compound A-30],–,–,–,–,–,–,>32 µg/mL,+++ (+++ = MIC ≦ 4),+++ (+++ = MIC ≦ 4),+++ (+++ = MIC ≦ 4),+++ (+++ = MIC ≦ 4),+++ (+++ = MIC ≦ 4)
Cn1cc(NC(=O)c2cc(NC(=O)c3cc(NC(=O)c4ccc(F)cc4F)cn3C)cn2C)cc1C(=O)NCCCN1CCCCC1 [Compound B-4],–,–,–,–,–,–,>32 µg/mL,++ (++ = 4 < MIC < 12),++ (++ = 4 < MIC < 12),++ (++ = 4 < MIC < 12),++ (++ = 4 < MIC < 12),++ (++ = 4 < MIC < 12)
Cn1cc(NC(=O)c2cc(NC(=O)c3cc(NC(=O)c4ccc(F)cc4F)cn3C)cn2C)cc1C(=O)NCCN1CCCC1 [Compound B-5],–,–,–,–,–,–,>32 µg/mL,+++ (+++ = MIC ≦ 4),+++ (+++ = MIC ≦ 4),+++ (+++ = MIC ≦ 4),+++ (+++ = MIC ≦ 4),+++ (+++ = MIC ≦ 4)
Cn1cc(NC(=O)c2cc(NC(=O)c3cc(NC(=O)c4ccc(F)cc4F)cn3C)cn2C)cc1C(=O)NCCCNC1CCCCC1 [Compound B-7],–,–,–,–,–,–,>32 µg/mL,+++ (+++ = MIC ≦ 4),+++ (+++ = MIC ≦ 4),+++ (+++ = MIC ≦ 4),+++ (+++ = MIC ≦ 4),+++ (+++ = MIC ≦ 4)
Cn1cc(NC(=O)c2cc(NC(=O)c3cc(NC(=O)c4ccc(F)cc4F)cn3C)cn2C)cc1C(=O)NCCCN1CCOCC1 [Compound B-8],–,–,–,–,–,–,>32 µg/mL,++ (++ = 4 < MIC < 12),++ (++ = 4 < MIC < 12),++ (++ = 4 < MIC < 12),++ (++ = 4 < MIC < 12),++ (++ = 4 < MIC < 12)
Cn1cc(NC(=O)c2ccc(F)cc2F)cc1C(=O)Nc1cc(C(=O)Nc2cc(C(=O)OCCN3CCCCC3)n(C)c2)n(C)c1 [Compound B-9],–,–,–,–,–,–,>32 µg/mL,+++ (+++ = MIC ≦ 4),+++ (+++ = MIC ≦ 4),+++ (+++ = MIC ≦ 4),+++ (+++ = MIC ≦ 4),+++ (+++ = MIC ≦ 4)
Cn1cc(NC(=O)c2ccc(F)cc2F)cc1C(=O)Nc1cc(C(=O)Nc2cc(C(=O)OCCN3CCOCC3)n(C)c2)n(C)c1 [Compound B-10],–,–,–,–,–,–,>32 µg/mL,+ (+ = 12 ≦ MIC ≦ 32),+ (+ = 12 ≦ MIC ≦ 32),+++ (+++ = MIC ≦ 4),+++ (+++ = MIC ≦ 4),+++ (+++ = MIC ≦ 4)
